# From PubChem BioAssay AID330 (DTP/NCI, 2004)
# Where “and” joins values, the source holds several entries; their conditions need not be identical. Equal values may be shown once. Inconclusive results and toxic doses are left out.
# Test system: P388 leukemia ip, CD2F1 mice, survival T/C
# Experiment: NCI In Vivo Anticancer Drug Screen. Data for tumor model P388 Leukemia (intraperitoneal) in CD2F1 (CDF1) mice
# Conditions: endpoint: median survival time, higher = longer survival
# How it was run: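 Mice carrying the transplanted tumor received test compound or vehicle. Survival was recorded in each group, and the value is the treated-group measurement divided by that of the vehicle-treated control group.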
# [1] = dose: 50.0 mg/kg/injection, schedule: Q01DX009 (ip), vehicle: saline with Tween-80
# [2] = dose: 200.0 mg/kg/injection, schedule: Q01DX009 (ip), vehicle: saline with Tween-80
# [3] = dose: 50.0 mg/kg/injection, schedule: Q01DX005 (ip), vehicle: Klucel (hydroxypropylcellulose) (HPC)
# [4] = dose: 100.0 mg/kg/injection, schedule: Q01DX005 (ip), vehicle: Klucel (hydroxypropylcellulose) (HPC)
# [5] = dose: 200.0 mg/kg/injection, schedule: Q01DX005 (ip), vehicle: Klucel (hydroxypropylcellulose) (HPC)
# [6] = dose: 60.0 mg/kg/injection, schedule: Q01DX005 (ip), vehicle: saline with Tween-80
# [7] = dose: 120.0 mg/kg/injection, schedule: Q01DX005 (ip), vehicle: saline with Tween-80
# [8] = dose: 240.0 mg/kg/injection, schedule: Q01DX005 (ip), vehicle: saline with Tween-80
# [9] = dose: 100.0 mg/kg/injection, schedule: Q01DX009 (ip), vehicle: saline with Tween-80
# [10] = dose: 12.5 mg/kg/injection, schedule: Q01DX009 (ip), vehicle: saline with Tween-80
# [11] = dose: 25.0 mg/kg/injection, schedule: Q01DX009 (ip), vehicle: saline with Tween-80
# [12] = dose: 6.25 mg/kg/injection, schedule: Q01DX005 (ip), vehicle: Klucel (hydroxypropylcellulose) (HPC)
# [13] = dose: 12.5 mg/kg/injection, schedule: Q01DX005 (ip), vehicle: Klucel (hydroxypropylcellulose) (HPC)
# [14] = dose: 25.0 mg/kg/injection, schedule: Q01DX005 (ip), vehicle: Klucel (hydroxypropylcellulose) (HPC)
structure (smiles),measurement,setting,value
C/C=C1/CN2C3CC1C1(C(=O)OC)C(OC(C)=O)[C@]4(C[C@H]21)c1cc(OC)ccc1N(C)C34 (stereo partly drawn),T/C,"dose: 3.5 mg/kg/injection, schedule: Q01DX005 (ip), vehicle: Klucel (hydroxypropylcellulose) (HPC)",115 % of control
same,T/C,"dose: 7.0 mg/kg/injection, schedule: Q01DX005 (ip), vehicle: Klucel (hydroxypropylcellulose) (HPC)",108 % of control
same,T/C,"dose: 14.0 mg/kg/injection, schedule: Q01DX005 (ip), vehicle: Klucel (hydroxypropylcellulose) (HPC)",94 % of control
same,T/C,"dose: 28.0 mg/kg/injection, schedule: Q01DX005 (ip), vehicle: Klucel (hydroxypropylcellulose) (HPC)",100 % of control
Cn1cnc2cc3c(cc2c1=O)nc1n3CCCC1,T/C,"dose: 100.0 mg/kg/injection, schedule: Q04DX003 (ip), vehicle: saline",102 % of control
same,T/C,"dose: 200.0 mg/kg/injection, schedule: Q04DX003 (ip), vehicle: saline",95 % of control
Cc1[nH]c(NC(=O)C(=O)O)c(C#N)c1C,T/C,[1],106 % of control
same,T/C,[2],100 % of control
CC(=O)N1CC(O)(c2ccccc2)CSc2ccccc21 (stereo not drawn),T/C,[3],95 % of control
same,T/C,[4],95 % of control
same,T/C,[5],96 % of control
O=[N+]([O-])c1ccc(CS(=O)(=O)c2ccccc2)o1,T/C,"dose: 50.0 mg/kg/injection, schedule: Q01DX009 (ip), vehicle: suspension in saline",103 % of control
same,T/C,"dose: 100.0 mg/kg/injection, schedule: Q01DX009 (ip), vehicle: suspension in saline",100 % of control
same,T/C,"dose: 200.0 mg/kg/injection, schedule: Q01DX009 (ip), vehicle: suspension in saline",105 % of control
CC(C)N(C(C)C)C(C(=O)OCC(O)C(O)C(O)C(O)C(=O)O)N(C(C)C)C(C)C (stereo not drawn),T/C,"dose: 50.0 mg/kg/injection, schedule: Q01DX009 (ip), vehicle: Klucel (hydroxypropylcellulose) (HPC)",113 % of control
same,T/C,"dose: 100.0 mg/kg/injection, schedule: Q01DX009 (ip), vehicle: Klucel (hydroxypropylcellulose) (HPC)",97 % of control
same,T/C,"dose: 200.0 mg/kg/injection, schedule: Q01DX009 (ip), vehicle: Klucel (hydroxypropylcellulose) (HPC)",111 % of control
CC1(C)C/C(=N/NC(N)=S)C(=NO)/C(=N\NC(N)=S)C1,T/C,[6],123 % of control
same,T/C,[7],110 % of control
same,T/C,[8],113 % of control
O=C1NN=C(c2ccccc2)CS1,T/C,[1],98 % of control
same,T/C,[9],101 % of control
COc1ccc(C2OC3=C(Nc4ccc(Cl)cc4N3)C2=O)c(OC)c1 (stereo not drawn),T/C,"dose: 0.94 mg/kg/injection, schedule: Q01DX005 (ip), vehicle: Klucel (hydroxypropylcellulose) (HPC)",99 % of control
same,T/C,"dose: 1.88 mg/kg/injection, schedule: Q01DX005 (ip), vehicle: Klucel (hydroxypropylcellulose) (HPC)",91 % of control
same,T/C,"dose: 3.75 mg/kg/injection, schedule: Q01DX005 (ip), vehicle: Klucel (hydroxypropylcellulose) (HPC)",95 % of control
same,T/C,"dose: 15.0 mg/kg/injection, schedule: Q01DX005 (ip), vehicle: Klucel (hydroxypropylcellulose) (HPC)",91 % of control
same,T/C,"dose: 30.0 mg/kg/injection, schedule: Q01DX005 (ip), vehicle: Klucel (hydroxypropylcellulose) (HPC)",92 % of control
same,T/C,"dose: 120.0 mg/kg/injection, schedule: Q01DX005 (ip), vehicle: Klucel (hydroxypropylcellulose) (HPC)",90 % of control and 93 % of control
O=C1CCC/C(c2ccccc2)=N\N=C/1c1ccccc1,T/C,[3],106 % of control
same,T/C,[4],106 % of control
same,T/C,[5],103 % of control
CC(C)S(=O)(=O)/C(Cl)=C(/Cl)C(Cl)=C(Cl)Cl,T/C,[10],100 % of control
same,T/C,[11],109 % of control
same,T/C,[1],95 % of control
O=C(O)c1ccc2c3c(n[se]c13)-c1ccccc1C2=O,T/C,[3],99 % of control
same,T/C,[4],103 % of control
OCC1OC(O)C(N=Cc2ccccc2O)C(O)C1O (stereo not drawn),T/C,[3],104 % of control
same,T/C,[4],104 % of control
same,T/C,[5],106 % of control
C/C=C1/CN2C3C[C@@]45c6cc(OC)c(OC)cc6NC4(O3)C2CC1C5C(=O)OC (stereo partly drawn),T/C,"dose: 5.25 mg/kg/injection, schedule: Q01DX005 (ip), vehicle: Klucel (hydroxypropylcellulose) (HPC)",102 % of control
same,T/C,"dose: 10.5 mg/kg/injection, schedule: Q01DX005 (ip), vehicle: Klucel (hydroxypropylcellulose) (HPC)",102 % of control
same,T/C,"dose: 21.0 mg/kg/injection, schedule: Q01DX005 (ip), vehicle: Klucel (hydroxypropylcellulose) (HPC)",98 % of control
same,T/C,"dose: 42.0 mg/kg/injection, schedule: Q01DX005 (ip), vehicle: Klucel (hydroxypropylcellulose) (HPC)",99 % of control
CC(C)(Nc1ccccc1)c1cccs1,T/C,[9],109 % of control
same,T/C,[2],109 % of control
same,T/C,"dose: 400.0 mg/kg/injection, schedule: Q01DX009 (ip), vehicle: saline with Tween-80",95 % of control
Nc1nc(N)c(-c2ccc(Cl)cc2)c(COc2ccc(NC(=O)c3ccc(NC(=O)CCl)cc3)cc2)n1,T/C,"dose: 25.0 mg/kg/injection, schedule: Q01DX001 (ip), vehicle: saline",104 % of control
same,T/C,"dose: 50.0 mg/kg/injection, schedule: Q01DX001 (ip), vehicle: saline",107 % of control
same,T/C,"dose: 100.0 mg/kg/injection, schedule: Q01DX001 (ip), vehicle: saline",114 % of control
CCN(CC)CCCCNC(=O)c1noc2cc([N+](=O)[O-])ccc12,T/C,"dose: 3.12 mg/kg/injection, schedule: Q01DX005 (ip), vehicle: Klucel (hydroxypropylcellulose) (HPC)",100 % of control
same,T/C,[12],99 % of control and 105 % of control
same,T/C,[13],103 % of control and 97 % of control
same,T/C,[14],103 % of control and 122 % of control and 96 % of control
O=C(CBr)Oc1ccc([N+](=O)[O-])cc1,T/C,"dose: 50.0 mg/kg/injection, schedule: Q01DX005 (ip), vehicle: saline with Tween-80",102 % of control
same,T/C,"dose: 100.0 mg/kg/injection, schedule: Q01DX005 (ip), vehicle: saline with Tween-80",100 % of control
same,T/C,"dose: 200.0 mg/kg/injection, schedule: Q01DX005 (ip), vehicle: saline with Tween-80",100 % of control
O=C1/C(=C/c2ccc3c(c2)OCO3)SC(=S)N1c1ccc(Cl)c(Cl)c1,T/C,[3],103 % of control
same,T/C,[4],100 % of control
C=C(C)c1nc(N)nc(NCCCC)n1,T/C,"dose: 100.0 mg/kg/injection, schedule: Q04DX003 (ip), vehicle: Klucel (hydroxypropylcellulose) (HPC)",104 % of control
same,T/C,"dose: 200.0 mg/kg/injection, schedule: Q04DX003 (ip), vehicle: Klucel (hydroxypropylcellulose) (HPC)",100 % of control
same,T/C,"dose: 400.0 mg/kg/injection, schedule: Q04DX003 (ip), vehicle: Klucel (hydroxypropylcellulose) (HPC)",96 % of control
CC(O)C(NC(=O)c1cnc(OCc2ccccc2)nc1N)C(=O)O (stereo not drawn),T/C,"dose: 6.25 mg/kg/injection, schedule: Q01DX009 (ip), vehicle: saline with Tween-80",100 % of control
same,T/C,[10],100 % of control
same,T/C,[11],90 % of control
CC(C)(C)c1cc(C(C)(C)C)c(P(C(O[Si](C)(C)C)=C(c2ccccc2)c2ccccc2)C(O[Si](C)(C)C)=C(c2ccccc2)c2ccccc2)c(C(C)(C)C)c1,T/C,[6],94 % of control
same,T/C,[7],99 % of control
same,T/C,[8],93 % of control
CC(C)(C)C(=O)Oc1ccc(Br)cc1,T/C,"dose: 100.0 mg/kg/injection, schedule: Q01DX001 (ip), vehicle: Klucel (hydroxypropylcellulose) (HPC)",106 % of control
same,T/C,"dose: 200.0 mg/kg/injection, schedule: Q01DX001 (ip), vehicle: Klucel (hydroxypropylcellulose) (HPC)",106 % of control
same,T/C,"dose: 400.0 mg/kg/injection, schedule: Q01DX001 (ip), vehicle: Klucel (hydroxypropylcellulose) (HPC)",108 % of control
c1ccc(Cc2cc(-c3cc(Cc4ccccc4)[nH]n3)n[nH]2)cc1,T/C,"dose: 60.0 mg/kg/injection, schedule: Q01DX005 (ip), vehicle: Klucel + Tween-80",101 % of control
same,T/C,"dose: 120.0 mg/kg/injection, schedule: Q01DX005 (ip), vehicle: Klucel + Tween-80",106 % of control
same,T/C,"dose: 240.0 mg/kg/injection, schedule: Q01DX005 (ip), vehicle: Klucel + Tween-80",107 % of control
NC(N)=Nc1ccc(-c2cc3cc(N=C(N)N)ccc3s2)cc1,T/C,[12],108 % of control
same,T/C,[13],105 % of control
same,T/C,[14],115 % of control
same,T/C,[3],168 % of control
CC(C)C(NC(=O)OCc1ccccc1)C(=O)N(C(=O)NC1CCCCC1)C1CCCCC1 (stereo not drawn),T/C,[3],100 % of control
same,T/C,[4],95 % of control
same,T/C,[5],98 % of control
CCCCOC(=O)c1ccc2nc(NC(=O)OC)[nH]c2c1,T/C,"dose: 100.0 mg/kg/injection, schedule: Q04DX002 (ip), vehicle: saline with Tween-80",100 % of control
same,T/C,"dose: 200.0 mg/kg/injection, schedule: Q04DX002 (ip), vehicle: saline with Tween-80",90 % of control
same,T/C,"dose: 400.0 mg/kg/injection, schedule: Q04DX002 (ip), vehicle: saline with Tween-80",91 % of control
